Experimental data reported in patent US20140314857A1, “FORMULATIONS FOR ENHANCED BIOAVAILABILITY OF ZANAMIVIR” (priority 2012, published 2014).

Columns and labels:
[1] = Intraduodenal bioavailability of zanamivir from glycerol and PBS formulations, enhancer pre-dose (Example 6); settings: male, Sprague-Dawley, rat, in vivo, 1.5 mg/animal, Plasma concentration, ID 1.5 mg/animal
Description: (§1) Male Sprague-Dawley rats (Hilltop Labs), 3 animals per treatment group, 250-350 grams in weight, were fitted with a jugular vein cannula (JVC). Animals intended for intraduodenal dosing were also fitted with one or more intraduodenal cannula (IDC) and those intended for intravenous dosing were fitted with a second JVC. Food was withheld from the animals for a minimum of twelve hours prior to test article administration and was returned approximately four hours post-dose. Water was supplied ad libitum.
(§2) Intraduodenal doses composed of 1.5 mg of zanamivir and varying amounts of an enhancer (glycerol or Capmul MCM L8) were injected directly into the duodenum via the IDC. Intravenous dosing was conducted by the injection of 1.5 mg of zanamivir in 200 μL of PBS through a JVC. For some experiments, the absorption enhancer was administered intraduodenally 2 hr prior to administering 1.5 mg of zanamivir in PBS through a second IDC. Each intraduodenal dose was followed with the introduction of a small air bubble (˜10 μL) in the cannula followed by a flush of 125 μL of PBS to ensure the dose was given in full. The volume of PBS used for cannula flush was consistent across the treatment groups. The cannula was tied to prevent the PBS remaining in the cannula from entering the duodenum.
(§3) Blood samples collected via the JVC, approximately 400 μL each, were obtained at 2 min, 5 min, 15 min, 30 min, 60 min, 90 min, and 120 min, with sodium heparin used as an anti-coagulant. Each sample was placed into a chilled tube containing the anticoagulant and kept on ice until centrifugation at 4° C., 3,000×g, for 5 min. The plasma supernatants were stored at −70° C. until LC-MS analysis.
Dosing solution samples were assayed by LC-MS/MS using electrospray ionization. The chromatographic system consisted of Perkin Elmer series 200 micropumps and autosampler equipped with a Waters Atlantic® HILIC Silica 3 μM, 2.1×50 mm column. The mass spectrometer was a PE Sciex API 4000 with electrospray interface in multiple reaction monitoring mode. […] Stock solutions (1 mg/mL zanamivir) were prepared in water. Standards (eight concentrations) were prepared in the appropriate matched matrix (HBSSg or Sprague-Dawley rat plasma containing sodium heparin) and diluted 50-fold with methanol. Experimental samples were treated identically.
Standards and samples were prepared in Sprague Dawley rat plasma containing sodium heparin as an anticoagulant. An eight-point calibration curve was prepared at concentrations of 1000, 750, 500, 250, 100, 50, 25, and 10 ng/mL by serial dilution. Standard samples were treated identically to the study samples.
Plasma samples were extracted by protein precipitation in methanol.
In this example, the bioavailability of Zanamivir was evaluated after intraduodenal doses in male Sprague-Dawley rats. The test compound was dosed at 1.5 mg/animal through intraduodenal routes from glycerol and PBS formulations. Plasma levels were determined by LC-MS/MS analysis. Pharmacokinetic parameters were estimated by a non-compartmental model using WinNonlin v5.2.1 software.

Caco-2 cell monolayers = experiment: Unidirectional (A-to-B) permeability of zanamivir across Caco-2 cell monolayers with and without excipients; format: in vitro ADME; settings: vs no enhancer
Description: Caco-2 cells were obtained from American Type Culture Collection (Rockville, Md.). Stock cultures were maintained in flasks with DMEM medium supplemented with 10% FBS, 1% non-essential amino acids, 1 mmol/L sodium pyruvate, 100 IU/mL penicillin, and 100 μg/mL streptomycin in a humidified incubator (37° C., 5% CO2). Cells were harvested by trypsinization and seeded at 60,000 cells/cm^2 onto Costar Transwell® 12-well dual-chamber plates with collagen-coated, microporous polycarbonate membranes (1.13 cm^2 insert area, 0.4 μm pore size; Corning Life Sciences, Acton, Mass.) for permeability studies. The culture medium was changed three times per week. […]
Unidirectional (A-to-B) permeability of zanamivir was determined at 15 μg/mL in the absence and presence of varying concentrations of excipients in Caco-2 cell monolayers. […]
Assays were conducted by seeding approximately 68,000 viable Caco-2 cells in 1.12 cm^2 Costar Transwell inserts (12-well format, 0.4 micron pore size PET membranes) in Dulbecco's Modified Eagles Medium (high glucose) supplemented with 20% fetal bovine serum, glutamine, pyruvate, non-essential amino acids, epidermal growth factor, ITS (insulin, transferrin, selenium), and penicillin/streptomycin. […] Transepithelial electrical resistance (TEER) readings were conducted to test the quality of the cell monolayer on the Transwell membrane. […]

[2] = Varying zanamivir levels at fixed 50 µL Capmul MCM L8, intraduodenal administration; format: in vivo, male Sprague-Dawley rats; settings: male, Sprague-Dawley, rat, plasma, ID
Description: as §1
as §2, with “Intravenous” for “Intraduodenal doses composed of 1.5 mg of zanamivir and varying amounts of an enhancer (glycerol or Capmul MCM L8) were injected directly into the duodenum via the IDC. Intravenous”
as §3

[3] = 50 µL PBS, 50 µL blank Capmul MCM L8 -2 hr, mean
[4] = 50 µL PBS, 50 µL blank Capmul MCM L8 -2 hr, individual rats
[5] = 50 µL PBS, 150 µL blank glycerol -2 hr, mean
[6] = 50 µL PBS, 150 µL blank glycerol -2 hr, individual rats
[7] = 100 µL Glycerol, individual rats
[8] = 150 µL Glycerol, individual rats

What does the source list for `CC(=O)NC1C(NC(=N)N)C=C(C(=O)O)OC1C(O)C(O)CO` (centres unmarked) [Zanamivir, 5-acetamido-4-guanidino-6-(1,2,3-trihydroxypropyl)-5,6-dihydro-4H-pyran-2-carboxylic acid]?
concentration at 0.25 hr [1, 3]: 29.5 ng/mL; concentration at 0.5 hr [1, 4]: 38 ng/mL; concentration at 0.5 hr [1, 3]: 38.5 ng/mL; concentration at 0.83 hr [1, 3]: 10.8 ng/mL; concentration at 1 hr [1, 4]: 33 ng/mL; concentration at 1 hr [1, 3]: 32.7 ng/mL; concentration at 1.5 hr [1, 3]: 38.7 ng/mL; concentration at 2 hr [1, 3]: 33.8 ng/mL; concentration at 0.25 hr [1, 5]: 51.8 ng/mL; concentration at 0.5 hr [1, 6]: 50.2 ng/mL; concentration at 0.5 hr [1, 5]: 54.2 ng/mL; concentration at 0.83 hr [1, 5]: 24.4 ng/mL; concentration at 1 hr [1, 6]: 36.4 ng/mL; concentration at 1 hr [1, 5]: 38.2 ng/mL; concentration at 1.5 hr [1, 6]: 40.1 ng/mL; concentration at 1.5 hr [1, 5]: 40.1 ng/mL; concentration at 2 hr ([1]; 50 µL PBS, 150 µL blank glycerol -2 hr, individual rats, BLOQ = below 10 ng/mL): 53.4 ng/mL; concentration at 2 hr [1, 5]: 54.1 ng/mL; concentration at 0.25 hr [1, 7]: 52 ng/mL; concentration at 0.25 hr ([1]; 100 µL Glycerol, mean): 56.4 ng/mL; concentration at 0.5 hr [1, 7]: 51.4 ng/mL; concentration at 0.5 hr ([1]; 100 µL Glycerol, mean): 48.7 ng/mL; concentration at 0.83 hr ([1]; 100 µL Glycerol, mean): 57.1 ng/mL; concentration at 1 hr [1, 7]: 38.5 ng/mL; concentration at 1 hr ([1]; 100 µL Glycerol, mean): 44.4 ng/mL; concentration at 1.5 hr ([1]; 100 µL Glycerol, mean): 46.9 ng/mL; concentration at 2 hr ([1]; 100 µL Glycerol, mean): 54.2 ng/mL; concentration at 0.25 hr [1, 8]: 109 ng/mL; concentration at 0.25 hr ([1]; 150 µL Glycerol, mean): 87.7 ng/mL; concentration at 0.5 hr ([1]; 150 µL Glycerol, mean): 69.2 ng/mL; concentration at 0.83 hr [1, 8]: 139 ng/mL; concentration at 0.83 hr ([1]; 150 µL Glycerol, mean): 107 ng/mL; concentration at 1 hr [1, 8]: 52.5 ng/mL; concentration at 1 hr ([1]; 150 µL Glycerol, mean): 49.9 ng/mL; concentration at 1.5 hr ([1]; 150 µL Glycerol, mean): 36.6 ng/mL; concentration at 2 hr ([1]; 150 µL Glycerol, mean): 29.3 ng/mL; increase in apparent permeability coefficient (Papp) (Caco-2 cell monolayers; optimized concentration of Capmul MCM L8 (0.25%)): > 5 fold; increase in apparent permeability coefficient (Papp) (Caco-2 cell monolayers; optimized concentration of glycerol (5%)): > 5 fold; Tmax ([2]; 0.75 mg zanamivir in 50 µL Capmul MCM L8): 4.8 min; Tmax ([2]; 1.5 mg zanamivir in 50 µL Capmul MCM L8): 4.8 min; Tmax ([2]; 3.0 mg zanamivir in 50 µL Capmul MCM L8): 8.4 min
